Results from ChEMBL document CHEMBL5247610, “Discovery of 5-((4-(pyridin-3-yl)pyrimidin-2-yl)amino)-1H-indole-2-carboxamide derivatives as novel anti-cancer agents targeting Nur77” (Eur J Med Chem, 2022).
Calls of active or inactive are those of the source. The calls are words filed in the database; no cut-off is given here.

Key:
HepG2 [1] = assay: Antitumor activity against human HepG2 cells xenografted in BALB/c nude mouse assessed as induction of nuclear shrinkage in tumor tissues at 50 mg/kg, ip administered once every day for 14 days by H and E staining based analysis; format: functional, organism-based; conditions: time 14.0 day
[2] = target: T1, Nuclear receptor subfamily 4immunitygroup A member 1 (Homo sapiens, UniProt P22736); assay: Modulation of Myc-Nur77-LBD (unknown origin) transfected in human HepG2 cells assessed as induction of Nur77 translocation from nucleus to mitochondria at 10 uM incubated for 3 hrs by confocal microscopy; conditions: filed as modulator
T1 sequence (P22736 whole entry, the tested form may be a part): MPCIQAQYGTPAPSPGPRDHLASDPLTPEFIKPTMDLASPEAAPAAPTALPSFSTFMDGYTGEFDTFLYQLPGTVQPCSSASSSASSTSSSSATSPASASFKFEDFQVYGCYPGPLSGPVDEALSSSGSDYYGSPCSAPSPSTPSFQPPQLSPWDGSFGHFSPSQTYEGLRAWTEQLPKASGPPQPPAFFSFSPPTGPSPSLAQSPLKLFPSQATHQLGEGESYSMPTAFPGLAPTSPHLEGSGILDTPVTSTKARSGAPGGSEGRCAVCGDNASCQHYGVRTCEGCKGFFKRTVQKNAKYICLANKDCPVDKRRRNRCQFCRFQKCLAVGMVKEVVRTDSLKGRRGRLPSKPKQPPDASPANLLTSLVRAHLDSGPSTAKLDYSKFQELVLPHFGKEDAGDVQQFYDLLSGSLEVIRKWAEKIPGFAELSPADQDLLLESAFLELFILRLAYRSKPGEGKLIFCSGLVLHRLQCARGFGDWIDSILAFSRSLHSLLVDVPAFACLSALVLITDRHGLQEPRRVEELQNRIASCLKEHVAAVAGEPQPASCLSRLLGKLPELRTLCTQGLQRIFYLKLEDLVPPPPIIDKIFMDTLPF

HepG2 [3] = assay: Induction of apoptosis in human HepG2 cells assessed as induction of PARP cleavage incubated for 12 hrs by western blot analysis; format: functional, cell-based
[4] = Toxicity in BALB/c nude mouse xenografted with human HepG2 cells assessed as body weight loss at 50 mg/kg, ip administered once every day for 14 days; format: organism-based; conditions: in vivo, 336 h, time 14 day
[5] = Selectivity index, ratio of IC50 for human L02 cells to IC50 for human A549 cells by MTT assay; format: toxicity; conditions: L02 cells versus A549 cells, read-out: Ratio IC50
HepG2 [6] = assay: Antiproliferative activity against human HepG2 cells assessed as reduction in cell viability incubated for 48 hrs by MTT assay; format: functional, cell-based; conditions: HepG2, 48 h
[7] = Toxicity in BALB/c nude mouse xenografted with human HepG2 cells assessed as effect on spleen damage at 50 mg/kg ip administered once every day for 14 days by H and E staining based analysis; format: organism-based; conditions: in vivo, 336 h, time 14 day
HepG2 [8] = assay: Induction of apoptosis in human HepG2 cells transfected with Nur77 siRNA assessed as late apoptotic cells at 10 uM incubated for 12 hrs by AnnexinV-FITC/PI staining based flow cytometry (reference value: 1.98%); format: functional
SMMC-7721 = assay: Antiproliferative activity against human SMMC-7721 cells assessed as reduction in cell viability incubated for 48 hrs by MTT assay; format: functional, cell-based; conditions: SMMC-7721, 48 h
MDA-MB-231 = assay: Antiproliferative activity against human MDA-MB-231 cells assessed as reduction in cell viability incubated for 48 hrs by MTT assay; format: functional, cell-based; conditions: MDA-MB-231, 48 h
[9] = Toxicity in BALB/c nude mouse xenografted with human HepG2 cells assessed as effect on heart damage at 50 mg/kg ip administered once every day for 14 days by H and E staining based analysis; format: organism-based; conditions: in vivo, 336 h, time 14 day
HeLa = assay: Antiproliferative activity against human HeLa cells assessed as reduction in cell viability incubated for 48 hrs by MTT assay; format: functional, cell-based
HepG2 [10] = assay: Induction of apoptosis in human HepG2 cells assessed as mitochondrial membrane potential loss by measuring proportion of cells with depolarized MMP at 10 uM incubated for 12 hrs by JC-1 staining based flow cytometry (reference value: 5.81%); format: functional
[11] = target: T2, Peroxisome proliferator-activated receptor gamma (Homo sapiens) (UniProt P37231); assay: Binding affinity to pBind-PPARgamma-LBD (unknown origin) transfected in HEK293T cells co-transfected with pG5-Luc at 5 uM incubated for 12 hrs by luciferase reporter gene assay; format: cell-based
T2 sequence (whole entry): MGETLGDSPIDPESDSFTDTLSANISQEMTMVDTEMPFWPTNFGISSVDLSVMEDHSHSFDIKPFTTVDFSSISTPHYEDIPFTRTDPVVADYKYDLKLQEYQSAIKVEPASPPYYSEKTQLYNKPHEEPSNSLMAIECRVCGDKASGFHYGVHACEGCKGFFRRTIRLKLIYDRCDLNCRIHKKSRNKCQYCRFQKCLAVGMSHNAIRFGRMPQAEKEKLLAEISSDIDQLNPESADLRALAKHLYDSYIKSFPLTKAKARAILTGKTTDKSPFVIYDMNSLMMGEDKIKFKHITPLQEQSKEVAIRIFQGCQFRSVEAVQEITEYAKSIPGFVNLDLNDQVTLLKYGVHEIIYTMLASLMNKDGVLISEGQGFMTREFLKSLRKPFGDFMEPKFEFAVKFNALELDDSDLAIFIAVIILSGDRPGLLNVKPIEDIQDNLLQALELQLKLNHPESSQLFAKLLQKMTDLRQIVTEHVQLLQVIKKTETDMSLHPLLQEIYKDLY

HepG2 [12] = assay: Antitumor activity against human HepG2 cells xenografted in BALB/c nude mouse assessed as increase in cleaved caspase 3 expression in tumor tissues at 50 mg/kg, ip administered once every day for 14 days by immunohistochemistry analysis; format: functional, organism-based; conditions: time 14.0 day
[13] = Selectivity index, ratio of IC50 for human L02 cells to IC50 for human SMMC-7721 cells by MTT assay; format: toxicity; conditions: L02 cells versus SMMC-7721 cells, read-out: Ratio IC50
HepG2 [14] = assay: Induction of apoptosis in human HepG2 cells transfected with Nur77 siRNA assessed as late necrotic cells at 10 uM incubated for 12 hrs by AnnexinV-FITC/PI staining based flow cytometry (reference value: 0.3%); format: functional
[15] = target: T1, Nuclear receptor subfamily 4immunitygroup A member 1; assay: Binding affinity to Nur77 ligand binding domain (unknown origin) by surface plasmon resonance analysis
Huh-7 = assay: Antiproliferative activity against human Huh-7 cells assessed as reduction in cell viability incubated for 48 hrs by MTT assay; format: functional, cell-based; conditions: Huh-7, 48 h
HepG2 [16] = assay: Antitumor activity against human HepG2 cells xenografted in BALB/c nude mouse assessed as decrease in Ki67 expression in tumor tissues at 50 mg/kg, ip administered once every day for 14 days by immunohistochemistry analysis; format: functional, organism-based; conditions: time 14.0 day
HepG2 [17] = assay: Induction of apoptosis in human HepG2 cells transfected with Nur77 siRNA assessed as viable cells at 10 uM incubated for 12 hrs by AnnexinV-FITC/PI staining based flow cytometry (reference value: 96.34%); format: functional; conditions: read-out: Activity
HepG2 [18] = assay: Antitumor activity against human HepG2 cells xenografted in BALB/c nude mouse assessed as inhibition of tumor weight at 50 mg/kg, ip administered once every day for 14 days; format: functional, organism-based; conditions: time 14.0 day
A549 = assay: Antiproliferative activity against human A549 cells assessed as reduction in cell viability incubated for 48 hrs by MTT assay; format: functional, cell-based; conditions: A549, 48 h
HepG2 [19] = assay: Induction of apoptosis in human HepG2 cells transfected with Nur77 siRNA assessed as early apoptotic cells at 10 uM incubated for 12 hrs by AnnexinV-FITC/PI staining based flow cytometry (reference value: 1.37%); format: functional
[20] = target: T1, Nuclear receptor subfamily 4immunitygroup A member 1; assay: Binding affinity to pBind-Nur77-LBD (unknown origin) transfected in HEK293T cells co-transfected with pG5-Luc assessed as inhibition of Nur77 transcriptional activity by measuring inhibition of Nur77-driven luciferase activity at 5 uM incubated for 12 hrs by luciferase reporter gene assay; format: cell-based; conditions: filed as modulator
HepG2 [21] = assay: Induction of apoptosis in human HepG2 cells assessed as necrotic cells at 10 uM incubated for 12 hrs by AnnexinV-FITC/PI staining based flow cytometry (reference value: 0.92%); format: functional

CN(C)CCCNC(=O)c1cc2cc(Nc3nccc(-c4cccnc4)n3)ccc2[nH]1
Activity (HepG2 [1]): Active
Activity [2]: Active
Activity (HepG2 [3]): Dose-Dependent Effect
Activity [4]: Non-Toxic
selectivity ratio [5]: 1.7
IC50 (HepG2 [6]): 9.04 µM
Activity [7]: Non-Toxic
Activity (HepG2 [8]): 2.28%
IC50 (SMMC-7721): 5.91 µM
IC50 (MDA-MB-231): 3.24 µM
Activity [9]: Non-Toxic
IC50 (HeLa): 3.75 µM
Activity (HepG2 [10]): 21.34%
Activity [11]: inactive
Activity (HepG2 [12]): Active
selectivity ratio [13]: 1.9
Activity (HepG2 [14]): 0.75%
Kd [15]: 0.354 µM
Activity ([15]; filed as modulator): Dose-Dependent Effect
IC50 (Huh-7): 3.58 µM
Activity (HepG2 [16]): Active
viability at 10 µM (HepG2 [17]): 95.1%
Activity (HepG2 [18]): Active
IC50 (A549): 6.63 µM
Activity (HepG2 [19]): 1.92%
Activity [20]: Active
Activity (HepG2 [21]): 2.83%
